The record followed here is US9376449B2, “Indole carboxamide derivative” (Astellas Pharma Inc., priority 2012, dated 2016).

One data set concerns isolated urethra. Nature of the data set: Test confirming that urethra contractile action by ramelteon is through MT1 and/or MT2 receptor (Luzindole). The arrangement: species or system rat. The settings on record: ramelteon 1 μM; solvent added instead of Luzindole; first contraction by ramelteon as 100%. On the procedure:
(2) Test for Confirming that Urethra Contractile Action is Action Through MT1 and/or MT2 Receptor
The urethra was isolated from an SD female rat having a body weight of 100 to 500 g. The isolated urethra was incised longitudinally to give a rectangular strip specimen having a width of about 3 mm, which was suspended in the muscle parallel to the circular to 10 mL of a tissue bath filled with a Krebs-Henseleit solution (pH 7.4). […] The resting tension was set to 0.5 g to record the isometric contraction. After the resting tension was stabilized, contraction was elicited by the addition of 10 μM phenylephrine. After washing and stabilizing, the test compound (ramelteon) at 1 μM was added to measure a contractile response. After washing and stabilizing, a solvent or Luzindole (purchased from Wako Pure Chemical Industries, Ltd.) (0.1 μM, 1 μM, or 10 μM) was added to the same specimen, and after 20 minutes, ramelteon at 1 μM was added again thereto to measure a contractile reaction. When the first contraction by ramelteon at 1 μM was taken as 100%, the second contractile rate by ramelteon was measured.

In general, melting point refers to the temperature, or range, at which the solid turns liquid. As for `CNC(=O)c1[nH]c2ccc(OC)cc2c1CCNC(=O)C(F)F` [Ex 2, 3-{2-[(difluoroacetyl)amino]ethyl}-5-methoxy-N-methyl-1H-indole-2-carboxamide], the melting point is 212 to 215 °C.
Turning to `CCC(=O)NCC[C@@H]1CCc2ccc3c(c21)CCO3` [Ramelteon, reference compound], the “Second contractile rate by ramelteon (%)” value in the data set on isolated urethra is recorded as 98 ± 10%.
